How the values were obtained:
Format in all cases: in vivo, human
[1] = Preventative treatment of ocular conditions during weekly docetaxel treatments; settings: person, medication containing 1.0% pimecrolimus during the entire course of docetaxel treatments
Excerpt: A person is diagnosed with metastatic breast cancer. Their physician decides that the best course of cancer therapy includes weekly docetaxel treatments. In order to reduce or prevent the occurrence of unwanted ocular conditions as a result of the docetaxel treatments, the physician also prescribes a medication containing 1.0% pimecrolimus to be administered during the entire course of docetaxel treatments.

[2] = Treatment of epiphora (canalicular stenosis) after docetaxel chemotherapy; settings: person, docetaxel every three weeks, medication containing 0.03%, after one week of daily treatment
Excerpt: A physician diagnosis a person complaining of excessive tearing with epiphora. The physician determines that the cause of this excessive tearing was canalicular stenosis, and believes that this ocular condition was brought on by the person's prostate cancer therapy, which included docetaxel treatments every three weeks. The patient receives a medication containing 0.03% […].

[3] = Treatment of epiphora (punctal stenosis) in a patient undergoing docetaxel treatments; settings: person, docetaxel every three weeks, medication containing 0.1% tacrolimus, after one week of daily treatment
Excerpt: A person undergoing docetaxel treatments every three weeks as part of their breast cancer therapy developed epiphora during the seventh week. […] The patient receives a medication containing 0.1% tacrolimus.

Compound: CC[C@@H]1/C=C(\C)C[C@H](C)C[C@H](OC)[C@H]2O[C@@](O)(C(=O)C(=O)N3CCCC[C@H]3C(=O)O[C@H](/C(C)=C/[C@@H]3CC[C@H](Cl)[C@H](OC)C3)[C@H](C)[C@@H](O)CC1=O)[C@H](C)C[C@@H]2OC [pimecrolimus, Pimecrolimus]
- occurrence of epiphora or symptoms of an ocular condition [1]: does not exhibit epiphora or show any symptoms of an ocular condition

Compound: Ascomycin [acromycin]
- excessive tearing (epiphora) after treatment [2]: the excessive tearing subsides

Compound: Tacrolimus
- excessive tearing (epiphora) after treatment [3]: the excessive tearing subsides

Source: patent US8536190B2, “Treating unwanted ocular conditions using an ascomycin macrolactam” (Allergan, Inc., priority 2007, dated 2013)
